The numbers were not newly measured in US20250381160A1, “Method and Apparatus for Providing Transdermal Delivery of a Carbidopa/Levodopa-Based Lotion for the Treatment of Parkinson's Disease” (Through The Skin LLC, priority 2024, published 2025), which cites them from elsewhere.

For series [1], the system named is Parkinson's Disease. As to conditions: carbidopa given with levodopa.
Test in series [2]: not given
This is another data set of the same source.

The conditions of series [3]: with HA of 150,000-750,000 Daltons, 1-3% of the solution, versus formulations without hyaluronic acid.

`CC(Cc1ccc(O)c(O)c1)(NN)C(=O)O` (single isomer, unassigned; (-)) [Carbidopa, (-)-L-α-hydrazino-α-methyl-β-(3,4-dihydroxybenzene) propanoic acid monohydrate]: the solubility in water result is “slightly soluble in water”. The “reduction of the amount of levodopa required to produce a given response” value in series [1] is recorded as “about 75%”.

For the compound `NC(Cc1ccc(O)c(O)c1)C(=O)O` (single isomer, unassigned; (-)) [Levodopa, (-)-L-α-amino-β-(3,4-dihydroxybenzene) propanoic acid], the solubility in water entry is “slightly soluble in water”. Besides, in series [2] (carbidopa and levodopa administered together), the half-life of levodopa result was “about 1.5 hours”. In series [2] (without carbidopa), the “plasma half-life of levodopa” value was “about 50 minutes”.

Consider `O=C(O)Cc1ccccc1Nc1c(Cl)cccc1Cl` [diclofenac sodium], for which the “increase of the amount that penetrated the skin” value in series [3] is 3 times.
